Patent US20210070748A1, “INHIBITORS OF BRUTONS TYROSINE KINASE” (Pharmacyclics LLC, priority 2015, published 2021)
Where two headings read alike, the source gives them in different places.

Tests used:
BTK-WT = biological target: T1, BTK-WT (Homo sapiens, UniProt Q06187); assay: Btk in vitro inhibitory activity (one of Method A TR-FRET, Method B electrophoretic mobility shift, Method C radiometric filter binding); type: biochemical
T1 construct: purified from insect cells as a full-length construct containing an N-terminal 6X-His tag; His6 (N); made in house; host or cells: insect cells (baculovirus Sf21 in Method B)
T1 sequence (Q06187 whole entry): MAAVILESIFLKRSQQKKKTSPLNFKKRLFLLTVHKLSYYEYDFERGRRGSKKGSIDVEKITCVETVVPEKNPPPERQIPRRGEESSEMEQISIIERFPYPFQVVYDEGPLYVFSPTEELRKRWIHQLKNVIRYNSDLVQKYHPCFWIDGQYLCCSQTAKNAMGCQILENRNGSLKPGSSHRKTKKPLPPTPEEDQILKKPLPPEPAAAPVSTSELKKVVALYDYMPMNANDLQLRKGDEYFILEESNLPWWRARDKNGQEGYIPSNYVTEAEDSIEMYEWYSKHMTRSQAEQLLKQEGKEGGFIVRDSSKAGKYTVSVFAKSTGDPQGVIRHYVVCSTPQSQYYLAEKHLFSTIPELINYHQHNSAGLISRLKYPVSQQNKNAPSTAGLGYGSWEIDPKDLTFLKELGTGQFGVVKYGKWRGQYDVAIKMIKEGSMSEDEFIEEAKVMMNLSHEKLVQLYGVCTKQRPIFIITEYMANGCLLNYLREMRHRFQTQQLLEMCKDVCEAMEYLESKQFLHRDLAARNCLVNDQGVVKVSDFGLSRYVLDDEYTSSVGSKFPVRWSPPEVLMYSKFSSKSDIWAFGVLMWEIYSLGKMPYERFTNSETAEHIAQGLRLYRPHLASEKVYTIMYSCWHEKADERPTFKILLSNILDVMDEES

TXK = biological target: T2, TXK (Homo sapiens, UniProt P42681); assay: Inhibition of a panel of kinases, in vitro HotSpot kinase assay: TXK; type: biochemical; settings: Table 15, C compounds; 1 μM ATP
T2 sequence (P42681 1-527): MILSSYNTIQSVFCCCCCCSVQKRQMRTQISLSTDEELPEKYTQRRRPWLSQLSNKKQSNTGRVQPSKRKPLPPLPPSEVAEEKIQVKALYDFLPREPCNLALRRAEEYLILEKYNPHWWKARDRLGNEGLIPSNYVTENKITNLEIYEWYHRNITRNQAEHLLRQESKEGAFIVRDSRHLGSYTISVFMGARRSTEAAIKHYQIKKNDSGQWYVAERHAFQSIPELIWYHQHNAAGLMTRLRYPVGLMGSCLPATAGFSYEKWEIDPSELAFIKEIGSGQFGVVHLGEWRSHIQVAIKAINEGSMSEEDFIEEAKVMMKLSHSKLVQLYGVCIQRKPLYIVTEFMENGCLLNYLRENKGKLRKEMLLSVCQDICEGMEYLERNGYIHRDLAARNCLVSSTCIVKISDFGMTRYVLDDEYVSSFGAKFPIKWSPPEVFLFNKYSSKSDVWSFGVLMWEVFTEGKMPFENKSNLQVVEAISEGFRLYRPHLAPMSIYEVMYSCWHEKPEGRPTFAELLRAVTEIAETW
Experimental: The degree of inhibition of a panel of kinases is determined using the in vitro HotSpot kinase assay (purified enzymes, ^33P-ATP, an appropriate substrate and 1 μM ATP).

[1] = Table 13, A compounds, read-out: IC50 BTK-WT
[2] = Table 15, C compounds, read-out: IC50 BTK-WT

SMILES	IC50 (BTK-WT; read-out: BTK-WT IC50) [µM]	IC50 (TXK) [µM]	IC50 (BTK-WT; [2]) [µM]	other results
C[C@@H]1[C@H](NC(=O)N(C)C)CCCN1c1cnc(C(N)=O)c(Nc2ccc(C(=O)N3CCN(C)CC3)cc2)n1 [Example A-98, 5-[(2R,3R)-3-[(dimethylcarbamoyl)amino]-2-methylpiperidin-1-yl]-3-{[4-(4-methylpiperazine-1-carbonyl)phenyl]amino}pyrazine-2-carboxamide]	–	–	–	IC50 (BTK-WT; [1]): ≤ 0.01 µM
CN1CCN(c2ccc(Nc3nc(N4CCC[C@@H](n5ccc6cc(C7CC7)ccc6c5=O)C4)cnc3C(N)=O)cc2)CC1 [Example A-99, 5-[(3R)-3-(6-cyclo-propyl-1-oxo-1,2-dihydroisoquinolin-2-yl)piperidin-1-yl]-3-{[4-(4-methylpiperazin-1-yl)phenyl]amino}pyrazine-2-carboxamide]	–	–	–	IC50 (BTK-WT; [1]): ≤ 0.01 µM
C[C@@H]1[C@H](NC(=O)N(C)C)CCCN1c1cnc(C(N)=O)c(Nc2ccc(N3CCN(C)CC3)cc2)n1 [Example A-100, 5-[(2R,3R)-3-[(dimethylcarbamoyl)amino]-2-methylpiperidin-1-yl]-3-{[4-(4-methylpiperazin-1-yl)phenyl]amino}pyrazine-2-carboxamide]	–	–	–	IC50 (BTK-WT; [1]): ≤ 0.01 µM
Cc1c(Nc2nc(N3CCC[C@@H](NC(=O)c4ccc(C5CC5)cc4)[C@H]3C)cnc2C(N)=O)cnn1C [Example A-191, 5-((2R,3)R-3-(4-cyclopropylbenzamido)-2-methylpiperidin-1-yl)-3-(1,5-dimethyl-1H-pyrazol-4-ylamino)pyrazine-2-carboxamide]	–	–	–	IC50 (BTK-WT; [1]): 0.01 to 0.1 µM
Cc1nn(C)cc1Nc1nc(N2CCC[C@@H](NC(=O)c3ccc(C4CC4)cc3)[C@H]2C)cnc1C(N)=O [Example A-192, 5-((2R,3R)-3-(4-cyclopropylbenzamido)-2-methylpiperidin-1-yl)-3-(1,3-dimethyl-1H-pyrazol-4-ylamino)pyrazine-2-carboxamide]	–	–	–	IC50 (BTK-WT; [1]): 0.01 to 0.1 µM
C[C@@H]1[C@H](NC(=O)c2cc3c(n2C)CC(C)(C)C3)CCCN1c1cnc(C(N)=O)c(Nc2cnn(C)c2)n1 [Example A-193, N-((2R,3R)-1-(5-carbamoyl-6-(1-methyl-1H-pyrazol-4-ylamino)pyrazin-2-yl)-2-methylpiperidin-3-yl)-1,5,5-trimethyl-1,4,5,6-tetrahydrocyclo-penta[b]pyrrole-2-carboxamide]	–	–	–	IC50 (BTK-WT; [1]): ≤ 0.01 µM
C[C@@H]1[C@H](NC(=O)c2ccc(C(C)(C)O)cc2)CCCN1c1cnc(C(N)=O)c(Nc2cnn(C)c2)n1 [Example A-200, 5-((2R,3R)-3-(4-(2-hydroxypropan-2-yl)benzamido)-2-methyl-piperidin-1-yl)-3-(1-methyl-1H-pyrazol-4-yl-amino)pyrazine-2-carboxamide]	< 0.01	–	–	–
C[C@@H]1[C@H](NC(=O)c2ccc(C(C)(C)C)cc2)CCCN1c1cnc(C(N)=O)c(Nc2cnn(C)c2)n1 [Example A-203, 5-((2R,3R)-3-(4-tert-butylbenzamido)-2-methylpiperidin-1-yl)-3-(1-methyl-1H-pyrazol-4-ylamino)pyrazine-2-carboxamide]	< 0.01	–	–	–
C=CC(=O)N1CCC[C@@H](Nc2nnc(C(N)=O)c(Nc3ccc(C(C)(C)C)cc3)n2)C1 [Example C-40, (R)-3-(1-acryloylpiperidin-3-ylamino)-5-(4-tert-butylphenylamino)-1,2,4-triazine-6-carboxamide]	–	≤ 0.01	≤ 0.01	–
C=CC(=O)N1CC[C@@H](N(C)c2nnc(C(N)=O)c(Nc3ccc(C(C)C)cc3)n2)C1 [Example C-41, (R)-3-((1-acryloylpyrrolidin-3-yl)(methyl)amino)-5-(4-isopropylphenylamino)-1,2,4-triazine-6-carboxamide]	–	≤ 0.01	≤ 0.01	–
C=CC(=O)N1CCC[C@@H](N(C)c2cnc(C(N)=O)c(Nc3ccc(C(C)C)cc3)n2)C1 [Example C-42, (R)-5-((1-acryloylpiperidin-3-yl)(methyl)amino)-3-(4-isopropylphenylamino) pyrazine-2-carboxamide]	–	≤ 0.01	≤ 0.01	–
C=CC(=O)N1CCC[C@@H](N(C)c2cnc(C(N)=O)c(Nc3ccc(C4(C)CCN(C5CCCC5)CC4)cc3)n2)C1 [Example C-44, (R)-5-((1-acryloylpiperidin-3-yl)(methyl)amino)-3-(4-(1-cyclopentyl-4-methylpiperidin-4-yl)phenylamino) pyrazine-2-carboxamide]	–	≤ 0.01	≤ 0.01	–
C=CC(=O)N1CCC[C@@H](Nc2nnc(C(N)=O)c(Nc3cc(C)ns3)n2)C1 [Example C-56, (R)-3-(1-acryloylpiperidin-3-ylamino)-5-(3-methylisothiazol-5-ylamino)-1,2,4-triazine-6-carboxamide]	–	≤ 0.01	≤ 0.01	–
C=CC(=O)N1CCC[C@@H](Nc2nnc(C(N)=O)c(Nc3ccc(C4CCN(C(=O)CC)CC4)cc3)n2)C1 [Example C-57, (R)-3-(1-acryloylpiperidin-3-ylamino)-5-(4-(1-propionylpiperidin-4-yl)phenylamino)-1,2,4-triazine-6-carboxamide]	–	≤ 0.01	≤ 0.01	–
C=CC(=O)N1CCC[C@@H](Nc2cnc(C(N)=O)c(Nc3ccc(C4CCN(C5CCCC5)CC4)cc3)n2)C1 [Example C-84, (R)-5-(1-acryloylpiperidin-3-ylamino)-3-(4-(1-cyclopentylpiperidin-4-yl)phenylamino)pyrazine-2-carboxamide]	–	≤ 0.01	≤ 0.01	–
C=CC(=O)N1CC[C@@H](N(C)c2cnc(C(N)=O)c(Nc3ccc(C4CCN(C5CCCC5)CC4)cc3)n2)C1 [Example C-85, (R)-5-((1-acryloylpyrrolidin-3-yl)(methyl)amino)-3-(4-(1-cyclopentylpiperidin-4-yl)phenylamino) pyrazine-2-carboxamide]	–	≤ 0.01	≤ 0.01	–

The next lines start with results.

IC50 (BTK-WT; read-out: BTK-WT IC50) [µM]	IC50 (TXK) [µM]	IC50 (BTK-WT; [2]) [µM]	SMILES	other results
< 0.01	–	–	C[C@@H]1[C@H](NC(=O)c2ccc(C3CC3)cc2)CCCN1c1cnc(C(N)=O)c(Nc2cnn(C(F)F)c2)n1 [Example A-198, 5-[(2R,3R)-3-(4-cyclopropylbenzamido)-2-methylpiperidin-1-yl]-3-{[1-(difluoromethyl)-1H-pyrazol-4-yl]amino}pyrazine-2-carboxamide]	–
< 0.01	–	–	C[C@@H]1[C@H](NC(=O)c2ccc(C3CC3)cc2)CCCN1c1nnc(C(N)=O)c(Nc2cnn(C)c2)n1 [Example A-201, 3-[(2R,3R)-3-(4-cyclopropylbenzamido)-2-methylpiperidin-1-yl]-5-[(1-methyl-1H-pyrazol-4-yl)amino]-1,2,4-triazine-6-carboxamide]	–
< 0.01	–	–	Cn1cc(Nc2nc(N3CCC[C@@H](NC(=O)c4ccc(C5CC5)cc4)C3)nnc2C(N)=O)cn1 [Example A-202, 3-[(3R)-3-(4-cyclopropylbenzamido)piper-idin-1-yl]-5-[(1-methyl-1H-pyrazol-4-yl)amino]-1,2,4-triazine-6-carboxamide]	–
< 0.01	–	–	C[C@@H]1[C@H](NC(=O)c2ccc(C3CC3)cc2)CCCN1c1cnc(C(N)=O)c(Nc2cnn(C3CC3)c2)n1 [Example A-205, 3-[(1-cyclopropyl-1H-pyrazol-4-yl)amino]-5-[(2R,3R)-3-(4-cyclopropylbenzamido)-2-methylpiperidin-1-yl]pyrazine-2-carboxamide]	–
< 0.01	–	–	C[C@@H]1[C@H](NC(=O)c2ccc(C3COC3)cc2)CCCN1c1cnc(C(N)=O)c(Nc2cnn(C)c2)n1 [Example A-206, 3-(1-methyl-1H-pyrazol-4-ylamino)-5-((2R,3R)-2-methyl-3-(4-(oxetan-3-yl)benzamido)piperidin-1-yl)pyrazine-2-carboxamide]	–
